Measured values taken from patent publication US4108973A, “Immunoassay for catecholamines” (Hoffmann-La Roche Inc., priority 1976, dated 1978).

Each molecule was assayed against Ab-7^123 dl-Met complex (epinephrine type catecholamine antibody) (assay: Antibody specificity: 50% inhibition of antibody-labelled dl-metanephrine complex (competitive binding radioimmunoassay)). Conditions: amount for 50% inhibition; incubation volume 0.5 or 1.0 ml.
Design: species or system rabbit
Description: The specificity of an epinephrine type catecholamine antibody suitable for use in the practice of the present method is set forth below in Table 1:
For immunization of rabbits, 10 mg. of each of the products of Example 8 or Example 9 was dissolved in 1 ml. of phosphate buffered saline and emulsified with 1 ml. of complete Freund's adjuvant. The second inoculation was given three weeks later and consisted of 1.5 mg. immunogen in 1 ml. PBS emulsified with 1 ml. of complete Freund's adjuvant. The third injection, five weeks after the first, employed the same concentration of antigen but was in incomplete Freund's adjuvant. Immunizations were by the subcutaneous route.
A competitive binding radioimmunoassay procedure is used similar to that described in U.S. Pat. No. 3,704,282. An incubation volume of either 0.5 or 1.0 ml. is used and antibody-label complex is separated from free label by precipitation with saturated

Compound	50 % INHIBITION OF Ab-7^123 dl-Met OMPLEX
CNCC(O)c1ccc(O)c(OC)c1 (racemic) [dl-Metanephrine]	0.050 ng
CNCC(O)c1ccc(O)cc1 (racemic) [dl-Synephrine]	0.100 ng
CNC[C@H](O)c1ccc(O)c(O)c1 [1-Epinephrine]	0.250 ng
NC[C@H](O)c1ccc(O)c(O)c1 [1-Norepinephrine]	> 500 ng
CNC[C@H](O)c1cccc(O)c1 [1-Phenylephrine]	0.060 ng
CC(N)Cc1ccccc1 (stereo not shown) [Amphetamine]	> 500 ng
N[C@@H](Cc1ccc(O)c(O)c1)C(=O)O [DOPA]	> 500 ng
NCCc1ccc(O)c(O)c1 [Dopamine]	> 500 ng
CNC(C)C(O)c1ccccc1 (stereo not shown) [Ephedrine]	> 500 ng
CNCCc1ccc(O)c(O)c1 [Epinine]	0.350 ng
CC(C)NCC(O)c1ccc(O)c(O)c1 (stereo not shown) [Isoproterenol]	> 500 ng
CNC(C)Cc1ccccc1 (stereo not shown) [Methamphetamine]	> 500 ng
NCCc1c[nH]c2ccc(O)cc12 [Sezotosin]	> 500 ng
